Where “and” joins values, the source holds several entries; their conditions need not be identical. Identical values can stand only once. Inconclusive results and toxic doses are left out. Peptide text beside a SMILES is read from it.
Tested on: P388 leukemia ip, CD2F1 mice, survival T/C
Experiment: NCI In Vivo Anticancer Drug Screen. Data for tumor model P388 Leukemia (intraperitoneal) in CD2F1 (CDF1) mice
Conditions: endpoint: median survival time, higher = longer survival
Method in brief: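 Mice carrying the transplanted tumor received test compound or vehicle. Survival was recorded in each group, and the value is the treated-group measurement divided by that of the vehicle-treated control group.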

[1] = dose: 50.0 mg/kg/injection, schedule: Q01DX009 (ip), vehicle: saline
[2] = dose: 100.0 mg/kg/injection, schedule: Q01DX009 (ip), vehicle: saline
[3] = dose: 200.0 mg/kg/injection, schedule: Q01DX009 (ip), vehicle: saline
[4] = dose: 100.0 mg/kg/injection, schedule: Q01DX009 (ip), vehicle: saline with Tween-80
[5] = dose: 200.0 mg/kg/injection, schedule: Q01DX009 (ip), vehicle: saline with Tween-80
[6] = dose: 50.0 mg/kg/injection, schedule: Q01DX009 (ip), vehicle: Klucel (hydroxypropylcellulose) (HPC)
[7] = dose: 100.0 mg/kg/injection, schedule: Q01DX009 (ip), vehicle: Klucel (hydroxypropylcellulose) (HPC)
[8] = dose: 50.0 mg/kg/injection, schedule: Q01DX005 (ip), vehicle: saline with Tween-80
[9] = dose: 100.0 mg/kg/injection, schedule: Q01DX005 (ip), vehicle: saline with Tween-80
[10] = dose: 50.0 mg/kg/injection, schedule: Q01DX009 (ip), vehicle: saline with Tween-80
[11] = dose: 50.0 mg/kg/injection, schedule: Q01DX005 (ip), vehicle: saline
[12] = dose: 100.0 mg/kg/injection, schedule: Q01DX005 (ip), vehicle: saline
[13] = dose: 200.0 mg/kg/injection, schedule: Q01DX005 (ip), vehicle: saline

In the case of `O=c1oc2ccccc2c(O)c1C=Nc1ccccc1`, the T/C (dose: 12.5 mg/kg/injection, schedule: Q01DX009 (ip), vehicle: saline with Tween-80) is reported as 89 % of control and the T/C (dose: 25.0 mg/kg/injection, schedule: Q01DX009 (ip), vehicle: saline with Tween-80) is reported as 88 % of control.
In the case of `CC(=O)CCNc1ccc(O)c2c1C(=O)c1ccccc1C2=O`, the T/C (dose: 25.0 mg/kg/injection, schedule: Q04DX002 (ip), vehicle: saline with Tween-80) is reported as 100 % of control, the T/C (dose: 50.0 mg/kg/injection, schedule: Q04DX002 (ip), vehicle: saline with Tween-80) is reported as 101 % of control and the T/C (dose: 100.0 mg/kg/injection, schedule: Q04DX002 (ip), vehicle: saline with Tween-80) is reported as 94 % of control. The T/C (dose: 200.0 mg/kg/injection, schedule: Q04DX002 (ip), vehicle: saline with Tween-80) was 100 % of control.
With `NC(Cc1ccccc1)C(=O)NC(Cc1ccccc1)C(=O)O` (stereo not drawn) (H-Phe-Phe-OH; configuration not given here) the T/C [1] was 96 % of control, the T/C [2] was 99 % of control and the T/C [3] was 94 % of control.
With `COc1ccccc1NC(=S)Nc1ccccc1OC` the T/C [4] was 100 % of control, the T/C (dose: 100.0 mg/kg/injection, schedule: Q04DX003 (ip), vehicle: saline sonified) was 100 % of control and the T/C [5] was 87 % of control. For the same molecule, the T/C (dose: 200.0 mg/kg/injection, schedule: Q04DX003 (ip), vehicle: saline sonified) was 100 % of control, the T/C (dose: 400.0 mg/kg/injection, schedule: Q01DX009 (ip), vehicle: saline with Tween-80) was 91 % of control and the T/C (dose: 400.0 mg/kg/injection, schedule: Q04DX003 (ip), vehicle: saline sonified) was 100 % of control.
`CCC[CH2][Sn]([CH2]CCC)([CH2]CCC)[CH2]CCN(C)C` was tested, and the T/C [1] was 99 % of control and the T/C [2] was 100 % of control.
With `O=C1C=CC(=O)C(N(CCO)CCO)=C1` the T/C (dose: 12.5 mg/kg/injection, schedule: Q01DX009 (ip), vehicle: saline) was 99 % of control, the T/C (dose: 12.5 mg/kg/injection, schedule: Q01DX009 (ip), vehicle: suspension in saline) was 100 % of control and the T/C (dose: 25.0 mg/kg/injection, schedule: Q01DX009 (ip), vehicle: saline) was 94 % of control. The T/C (dose: 25.0 mg/kg/injection, schedule: Q01DX009 (ip), vehicle: suspension in saline) was 103 % of control, the T/C [1] was 95 % of control and the T/C (dose: 50.0 mg/kg/injection, schedule: Q01DX009 (ip), vehicle: suspension in saline) was 113 % of control. For the same molecule, the T/C [2] was 95 % of control and the T/C (dose: 100.0 mg/kg/injection, schedule: Q01DX009 (ip), vehicle: suspension in saline) was 109 % of control and 111 % of control.
`c1ccc2c(SCCCCCSc3c4ccccc4nc4ccccc34)c3ccccc3nc2c1` was tested, and the T/C (dose: 60.0 mg/kg/injection, schedule: Q01DX005 (ip), vehicle: Klucel (hydroxypropylcellulose) (HPC)) was 97 % of control, the T/C (dose: 120.0 mg/kg/injection, schedule: Q01DX005 (ip), vehicle: Klucel (hydroxypropylcellulose) (HPC)) was 89 % of control and the T/C (dose: 240.0 mg/kg/injection, schedule: Q01DX005 (ip), vehicle: Klucel (hydroxypropylcellulose) (HPC)) was 88 % of control.
`CC(C)[C@](O)(C(=O)OCC1=CCN2CC[C@@H](O)[C@@H]12)[C@H](C)O` was tested, and the T/C (dose: 25.0 mg/kg/injection, schedule: Q01DX009 (ip), vehicle: water) was 105 % of control, the T/C (dose: 50.0 mg/kg/injection, schedule: Q01DX009 (ip), vehicle: water) was 100 % of control and 104 % of control and the T/C (dose: 100.0 mg/kg/injection, schedule: Q01DX009 (ip), vehicle: distilled water + Tween-80) was 103 % of control. For the same molecule, the T/C [2] was 97 % of control, the T/C (dose: 100.0 mg/kg/injection, schedule: Q01DX009 (ip), vehicle: water) was 105 % of control and 107 % of control and the T/C (dose: 200.0 mg/kg/injection, schedule: Q01DX009 (ip), vehicle: distilled water + Tween-80) was 112 % of control. For the same molecule, the T/C [3] was 114 % of control, the T/C (dose: 200.0 mg/kg/injection, schedule: Q01DX009 (ip), vehicle: water) was 107 % of control and 113 % of control and the T/C (dose: 400.0 mg/kg/injection, schedule: Q01DX009 (ip), vehicle: distilled water + Tween-80) was 113 % of control. For the same molecule, the T/C (dose: 400.0 mg/kg/injection, schedule: Q01DX009 (ip), vehicle: saline) was 112 % of control and the T/C (dose: 800.0 mg/kg/injection, schedule: Q01DX009 (ip), vehicle: distilled water + Tween-80) was 103 % of control.
`O=NN(CCF)C(=O)NC1CCCCC1` was tested, and the T/C (dose: 16.5 mg/kg/injection, schedule: Q04DX003 (ip), vehicle: saline with Tween-80) was 209 % of control and the T/C (dose: 25.0 mg/kg/injection, schedule: Q04DX003 (ip), vehicle: saline with Tween-80) was 225 % of control.
`COc1ccc(-c2c3ccc(=O)c(OC)cc3cn2C)cc1OC` was tested, and the T/C (dose: 50.0 mg/kg/injection, schedule: Q01DX005 (ip), vehicle: Klucel (hydroxypropylcellulose) (HPC)) was 102 % of control, the T/C (dose: 100.0 mg/kg/injection, schedule: Q01DX005 (ip), vehicle: Klucel (hydroxypropylcellulose) (HPC)) was 94 % of control and the T/C (dose: 200.0 mg/kg/injection, schedule: Q01DX005 (ip), vehicle: Klucel (hydroxypropylcellulose) (HPC)) was 94 % of control.
In the case of `C=CCc1cc(/C(CC)=C(/CC)c2ccc(OCCN(CC)CC)c(CC=C)c2)ccc1OCCN(CC)CC`, the T/C (dose: 50.0 mg/kg/injection, schedule: Q01DX005 (ip), vehicle: saline + Tween-80 + alcohol) is reported as 99 % of control, the T/C (dose: 100.0 mg/kg/injection, schedule: Q01DX005 (ip), vehicle: saline + Tween-80 + alcohol) is reported as 93 % of control and the T/C (dose: 200.0 mg/kg/injection, schedule: Q01DX005 (ip), vehicle: saline + Tween-80 + alcohol) is reported as 104 % of control.
With `O=c1[nH]c(C(Br)(Br)Br)nc2ccccc12` the T/C (dose: 12.5 mg/kg/injection, schedule: Q01DX009 (ip), vehicle: Klucel (hydroxypropylcellulose) (HPC)) was 99 % of control, the T/C (dose: 25.0 mg/kg/injection, schedule: Q01DX009 (ip), vehicle: Klucel (hydroxypropylcellulose) (HPC)) was 112 % of control and the T/C [6] was 113 % of control. For the same molecule, the T/C [7] was 117 % of control.
With `CC(=O)Oc1c2ccccc2cc2ccccc12` the T/C [8] was 112 % of control, the T/C [9] was 96 % of control and the T/C (dose: 200.0 mg/kg/injection, schedule: Q01DX005 (ip), vehicle: saline with Tween-80) was 89 % of control.
`N#C/C(=C\c1ccccn1)c1ccc(Cl)cc1` was tested, and the T/C (dose: 18.75 mg/kg/injection, schedule: Q01DX009 (none), vehicle: saline) was 100 % of control, the T/C (dose: 37.5 mg/kg/injection, schedule: Q01DX009 (none), vehicle: saline) was 99 % of control and the T/C (dose: 75.0 mg/kg/injection, schedule: Q01DX009 (none), vehicle: saline) was 90 % of control.
`CCOC(=O)C(C)(C)Oc1ccc(Cl)cc1` was tested, and the T/C [10] was 100 % of control, the T/C [4] was 93 % of control and the T/C [5] was 112 % of control.
With `CC(C)=CC(=O)NCCO` the T/C (dose: 100.0 mg/kg/injection, schedule: Q04DX002 (ip), vehicle: saline) was 100 % of control, the T/C (dose: 200.0 mg/kg/injection, schedule: Q04DX002 (ip), vehicle: saline) was 100 % of control and the T/C (dose: 400.0 mg/kg/injection, schedule: Q04DX002 (ip), vehicle: saline) was 105 % of control.
For `CNc1nnnn1C`, the T/C [11] was 98 % of control, the T/C [12] was 98 % of control and the T/C [13] was 98 % of control.
In the case of `CC(=O)OC1CC2(C)C(c3ccoc3)CC3OC32C2(C)C(=O)C(O)=C3C(C)(C)C(=O)C=CC3(C)C12` (centres undefined), the T/C (dose: 3.0 mg/kg/injection, schedule: Q01DX009 (ip), vehicle: Klucel (hydroxypropylcellulose) (HPC)) is reported as 96 % of control, the T/C (dose: 6.0 mg/kg/injection, schedule: Q01DX009 (ip), vehicle: Klucel (hydroxypropylcellulose) (HPC)) is reported as 100 % of control and the T/C (dose: 12.0 mg/kg/injection, schedule: Q01DX009 (ip), vehicle: Klucel (hydroxypropylcellulose) (HPC)) is reported as 100 % of control. The T/C (dose: 24.0 mg/kg/injection, schedule: Q01DX009 (ip), vehicle: Klucel (hydroxypropylcellulose) (HPC)) was 99 % of control.
With `CC(C)C(NC(=O)[C@H](C(C)C)N1C(=O)c2ccccc2C1=O)C(=O)O` (some centres undefined) the T/C [8] was 88 % of control and the T/C [9] was 96 % of control.
`COC(=O)c1ccc(SCCC(=O)CNc2nc(N)nc(N)c2[N+](=O)[O-])cc1` was tested, and the T/C [6] was 96 % of control, the T/C [7] was 93 % of control and the T/C (dose: 200.0 mg/kg/injection, schedule: Q01DX009 (ip), vehicle: Klucel (hydroxypropylcellulose) (HPC)) was 96 % of control.
In the case of `CC(C)C(N)S(=O)(=O)O` (centres undefined), the T/C [10] is reported as 115 % of control, the T/C [4] is reported as 94 % of control and the T/C [5] is reported as 105 % of control.
In the case of `Clc1ccc2c3c([nH]c2c1)CCc1cncnc1-3`, the T/C (dose: 100.0 mg/kg/injection, schedule: Q01DX001 (ip), vehicle: Klucel (hydroxypropylcellulose) (HPC)) is reported as 93 % of control, the T/C (dose: 200.0 mg/kg/injection, schedule: Q01DX001 (ip), vehicle: Klucel (hydroxypropylcellulose) (HPC)) is reported as 90 % of control and the T/C (dose: 400.0 mg/kg/injection, schedule: Q01DX001 (ip), vehicle: Klucel (hydroxypropylcellulose) (HPC)) is reported as 90 % of control.
`NC(=Nc1ccccc1)NNC=O` was tested, and the T/C [11] was 102 % of control, the T/C [12] was 104 % of control and the T/C [13] was 100 % of control.

From PubChem BioAssay AID330 (DTP/NCI, 2004)
